Entries after “also recorded” stand apart in the source; their conditions may differ.
Assays:
human BuChE = human BuChE (Homo sapiens, UniProt P06276); experiment: biochemical; details: for inhibition at 100 µM / inhibition at 1000 µM: read-out: human BuChE inhibition%
human AChE = human AChE (Homo sapiens, UniProt P22303); experiment: AChE inhibition, modified Ellman spectrophotometric method; type: biochemical; details: for inhibition at 100 µM / inhibition at 1000 µM / inhibition at 0.001 µM / inhibition at 0.01 µM / inhibition at 0.1 µM / inhibition at 1 µM / inhibition at 10 µM: read-out: human AChE inhibition %
Sequence of human AChE (P22303 32-614): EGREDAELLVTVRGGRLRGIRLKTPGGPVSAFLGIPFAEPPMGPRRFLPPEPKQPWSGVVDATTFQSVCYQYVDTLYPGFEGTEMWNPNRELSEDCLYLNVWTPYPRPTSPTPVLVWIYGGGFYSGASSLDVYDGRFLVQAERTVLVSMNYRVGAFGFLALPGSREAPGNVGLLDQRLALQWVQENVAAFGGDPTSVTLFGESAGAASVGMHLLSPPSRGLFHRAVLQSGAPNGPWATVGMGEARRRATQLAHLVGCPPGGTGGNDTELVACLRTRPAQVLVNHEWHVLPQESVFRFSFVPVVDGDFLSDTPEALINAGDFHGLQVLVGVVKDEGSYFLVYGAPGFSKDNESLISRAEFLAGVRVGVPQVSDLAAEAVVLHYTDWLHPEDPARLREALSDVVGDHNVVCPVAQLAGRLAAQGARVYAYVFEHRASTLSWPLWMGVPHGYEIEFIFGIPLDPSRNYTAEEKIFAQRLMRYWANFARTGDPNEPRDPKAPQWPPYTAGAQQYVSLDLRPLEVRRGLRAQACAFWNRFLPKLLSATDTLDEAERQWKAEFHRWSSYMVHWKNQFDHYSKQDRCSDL

[1] = In vitro BBB permeability assay; type: in vitro ADME; details: PAMPA; for type of BBB permeation: class by Pe

Sequence of human BuChE (P06276 29-602): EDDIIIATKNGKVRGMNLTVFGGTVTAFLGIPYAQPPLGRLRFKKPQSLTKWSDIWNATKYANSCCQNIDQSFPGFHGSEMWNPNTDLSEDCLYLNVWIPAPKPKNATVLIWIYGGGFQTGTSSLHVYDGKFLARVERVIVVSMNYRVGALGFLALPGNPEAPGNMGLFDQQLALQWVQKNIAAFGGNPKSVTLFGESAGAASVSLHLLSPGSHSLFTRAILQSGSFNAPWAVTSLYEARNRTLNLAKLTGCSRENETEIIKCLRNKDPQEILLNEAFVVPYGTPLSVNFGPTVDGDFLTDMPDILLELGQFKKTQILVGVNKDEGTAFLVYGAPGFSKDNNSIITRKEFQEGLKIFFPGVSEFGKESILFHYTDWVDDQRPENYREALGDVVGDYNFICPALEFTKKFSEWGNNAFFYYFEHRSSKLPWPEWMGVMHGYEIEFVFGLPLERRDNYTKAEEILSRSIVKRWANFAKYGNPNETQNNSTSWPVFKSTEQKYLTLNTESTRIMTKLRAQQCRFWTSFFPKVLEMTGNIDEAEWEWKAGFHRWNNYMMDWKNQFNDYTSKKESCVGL

| Compound | IC50 (human BuChE) [mM] | inhibition at 100 µM (human BuChE) [%] | inhibition at 1000 µM (human BuChE) [%] | IC50 (human AChE) [µM] | inhibition at 100 µM (human AChE) [%] | inhibition at 1000 µM (human AChE) [%] | BBB permeability (in words) [1] | type of BBB permeation [1] | inhibition at 0.001 µM (human AChE) [%] | inhibition at 0.01 µM (human AChE) [%] | inhibition at 0.1 µM (human AChE) [%] | inhibition at 1 µM (human AChE) [%] | inhibition at 10 µM (human AChE) [%] |
| --- | --- | --- | --- | --- | --- | --- | --- | --- | --- | --- | --- | --- | --- |
| O=C(C=Cc1ccc(N2CCOCC2)cc1)c1ccsc1 [Compound 1, 3-(4-Morpholinophenyl)-1-(thiophen-3-yl)prop-2-en-1-one] | > 1 | 21.3 ± 0.84 | 46.6 ± 0.92 | > 100 | 41.1 ± 1.87 | 78.3 ± 2.1 |  |  |  |  |  |  |  |
| c1ccc(N2N=C(c3ccsc3)CC2c2ccc(N3CCOCC3)cc2)cc1 (centres unmarked) [Compound 2a, 1-Phenyl-3-(thiophen-3-yl)-5-[4-(4-morpholinyl)phenyl]-2-pyrazoline] | > 1 | 18.1 ± 0.76 | 31.1 ± 0.84 | 0.107 ± 0.0048 | 88.6 ± 2.06 | 91.4 ± 2.46 | high BBB permeability | CNS+ high BBB permeation (high BBB permeation Pe (10^–6 cm s^–1) > 4.0) | 14.7 ± 0.66 | 20.3 ± 0.99 | 49.7 ± 1.74 | 82.5 ± 1.91 | 84.8 ± 1.8 |
| CS(=O)(=O)c1ccc(N2N=C(c3ccsc3)CC2c2ccc(N3CCOCC3)cc2)cc1 (centres unmarked) [Compound 2b, 1-(4-Methylsulfonylphenyl)-3-(thiophen-3-yl)-5-[4-(4-morpholinyl)phenyl]-2-pyrazoline] | > 1 | 15.1 ± 0.78 | 26.4 ± 0.75 | > 1000 | 23.1 ± 0.95 | 40.6 ± 1.76 |  |  |  |  |  |  |  |
| Cc1ccc(N2N=C(c3ccsc3)CC2c2ccc(N3CCOCC3)cc2)cc1 (centres unmarked) [Compound 2c, 1-(4-Methylphenyl)-3-(thiophen-3-yl)-5-[4-(4-morpholinyl)phenyl]-2-pyrazoline] | > 1 | 20.6 ± 0.82 | 29.3 ± 0.99 | > 100 | 38.7 ± 1.34 | 73.6 ± 2.06 |  |  |  |  |  |  |  |
| COc1ccc(N2N=C(c3ccsc3)CC2c2ccc(N3CCOCC3)cc2)cc1 (centres unmarked) [Compound 2d, 1-(4-Methoxyphenyl)-3-(thiophen-3-yl)-5-[4-(4-morpholinyl)phenyl]-2-pyrazoline] | > 1 | 21.1 ± 0.86 | 33.1 ± 0.99 | > 100 | 44.2 ± 1.24 | 84.5 ± 2.36 |  |  |  |  |  |  |  |
| N#Cc1ccc(N2N=C(c3ccsc3)CC2c2ccc(N3CCOCC3)cc2)cc1 (centres unmarked) [Compound 2e, 1-(4-Cyanophenyl)-3-(thiophen-3-yl)-5-[4-(4-morpholinyl)phenyl]-2-pyrazoline] | > 1 | 23.4 ± 1.06 | 38.9 ± 1.22 | > 100 | 47.6 ± 1.85 | 81.2 ± 1.91 |  |  |  |  |  |  |  |
| Fc1ccc(N2N=C(c3ccsc3)CC2c2ccc(N3CCOCC3)cc2)cc1 (centres unmarked) [Compound 2f, 1-(4-Fluorophenyl)-3-(thiophen-3-yl)-5-[4-(4-morpholinyl)phenyl]-2-pyrazoline] | > 1 | 21.9 ± 0.89 | 31.5 ± 1.15 | > 100 | 45.4 ± 1.99 | 71.4 ± 2.46 |  |  |  |  |  |  |  |
| Clc1ccc(N2N=C(c3ccsc3)CC2c2ccc(N3CCOCC3)cc2)cc1 (centres unmarked) [Compound 2g, 1-(4-Chlorophenyl)-3-(thiophen-3-yl)-5-[4-(4-morpholinyl)phenyl]-2-pyrazoline] | > 1 | 20.8 ± 0.93 | 25 ± 0.96 | 0.122 ± 0.0051 | 86.6 ± 2.56 | 90.7 ± 1.15 |  | CNS ± uncertain BBB permeation | 15.6 ± 0.73 | 23.1 ± 1.06 | 47.9 ± 0.96 | 79.5 ± 1.57 | 82.4 ± 2.17 |
| Brc1ccc(N2N=C(c3ccsc3)CC2c2ccc(N3CCOCC3)cc2)cc1 (centres unmarked) [Compound 2h, 1-(4-Bromophenyl)-3-(thiophen-3-yl)-5-[4-(4-morpholinyl)phenyl]-2-pyrazoline] | > 1 | 26.2 ± 1.25 | 40.8 ± 1.94 | > 1000 | 20.9 ± 0.83 | 46.5 ± 1.94 |  |  |  |  |  |  |  |
| Fc1cccc(N2N=C(c3ccsc3)CC2c2ccc(N3CCOCC3)cc2)c1 (centres unmarked) [Compound 2i, 1-(3-Fluorophenyl)-3-(thiophen-3-yl)-5-[4-(4-morpholinyl)phenyl]-2-pyrazoline] | > 1 | 27.4 ± 1.38 | 36.2 ± 1.42 | > 100 | 37.6 ± 1.51 | 68.3 ± 2.15 |  |  |  |  |  |  |  |
| Clc1cccc(N2N=C(c3ccsc3)CC2c2ccc(N3CCOCC3)cc2)c1 (centres unmarked) [Compound 2j, 1-(3-Chlorophenyl)-3-(thiophen-3-yl)-5-[4-(4-morpholinyl)phenyl]-2-pyrazoline] | > 1 | 24.9 ± 0.97 | 34.3 ± 1.55 | 0.062 ± 0.003 | 89.5 ± 1.85 | 93.1 ± 2.85 |  | CNS ± uncertain BBB permeation | 19 ± 0.63 | 36.2 ± 0.98 | 60.8 ± 1.64 | 72 ± 1.78 | 80.2 ± 2.16 |
| Brc1cccc(N2N=C(c3ccsc3)CC2c2ccc(N3CCOCC3)cc2)c1 (centres unmarked) [Compound 2k, 1-(3-Bromophenyl)-3-(thiophen-3-yl)-5-[4-(4-morpholinyl)phenyl]-2-pyrazoline] | > 1 | 17.6 ± 0.81 | 29 ± 1.09 | > 1000 | 30.3 ± 1.03 | 45.8 ± 1.72 |  |  |  |  |  |  |  |
| O=[N+]([O-])c1cccc(N2N=C(c3ccsc3)CC2c2ccc(N3CCOCC3)cc2)c1 (centres unmarked) [Compound 2l, 1-(3-Nitrophenyl)-3-(thiophen-3-yl)-5-[4-(4-morpholinyl)phenyl]-2-pyrazoline] | > 1 | 19.3 ± 0.82 | 30.5 ± 0.97 | 0.04 ± 0.0019 | 91.7 ± 1.92 | 95.3 ± 2.03 | high blood–brain barrier permeability; also recorded: high BBB permeability | CNS+ high BBB permeation (high BBB permeation Pe (10^–6 cm s^–1) > 4.0) | 19.3 ± 0.75 | 42.2 ± 1.52 | 64.6 ± 1.85 | 75.4 ± 1.03 | 82.6 ± 1.51 |

Source: publication PMC11270571 (ACS Omega, 2024)
